Measurements reported in US4883666A, “Controlled drug delivery system for treatment of neural disorders” (Massachusetts Institute of Technology, priority 1987, dated 1989).
Where two headings read alike, the source gives them in different places.

Key:
Parkinsonian patients = settings: three patients; continuous i.v. infusion replacing oral levodopa; cited from earlier work
Parkinson's disease = settings: systemic application; cited from earlier work
behavioral deficits = settings: intracerebral injections; cited from earlier work
[1] = From the text: Ethylene vinyl acetate slabs containing 0%, 30%, 40% and 50% dopamine by weight formed by solvent casting as previously described were punched out to form round discs, approximately 3.0 mm in diameter. These discs were then coated by an additional layer of ethylene vinyl acetate either (i) completely; (ii) completely except for one concave pinhole present on one surface (iii) completely except for two concave pinholes present, one on each surface; (iv) partially, with one surface coated and the other not coated; or (v) not coated at all.
The release of dopamine into 5 ml of a 150 mM NaCI, 0.2% EDTA solution was monitored by measuring the absorbance at 280 nm of the solution at various time points and by comparison to a linear standard curve comparing absorbance at 280 nm to concentration of dopamine in the same buffered solution. The results are portrayed as either the absolute mass released over the time course of 65 days or as the amount of dopamine released as a fraction of the total amount present in the pellet.
Samples of these solutions were injected into High Pressure Liquid Chromatography system designed to measure absolute quantities of dopamine and to distinguish dopamine from its oxidation products or other metabolites.

[2] = Intracerebral dialysis: extracellular fluid dopamine levels in the striatum after implantation of dopamine containing EVA pellets
Procedure: Male Sprague-Dawley Ras (150-200 g) were anaesthetized with pentobarbitone (60 mg/kg) and placed in a David Kopf stereotaxic frame. The skull was exposed and a 4 mm diameter hole drilled centered at coordinates A +0.4 mm and R 2.6 mm using the Paxinos and Watson coordinates. The right cortex was aspirated using a mild vacuum down to the striatal surface (ventral - 3 mm). Pellets were implanted with the uncoated pore, when present, facing ventrally and imbedded in the body of the striatum. Both control, non-dopamine containing pellets, and dopamine containing (2 mg) pellets were implanted. In vivo release was measured on the third, twentieth and sixty-fifth days. Intracerebral Dialysis Method:
Rats were anaesthetized with pentobarbitone (60 mg/kg) and placed in the Kopf stereotaxic frame. The skull was exposed and a Carnegie Medicin dialysis probe (4 mm membrane length, 0.5 mm o.d., 5,000 m.w. cut off) implanted into the striatum at Paxinos and Watson coordinates A +2.1, R (or L) 1.9, V -7 mm. Probes were perfused with an artificial CSF medium, 1 mM Ca, pH 7.35, at a flow rate of 1.5 microliter/min using a CMA 100 pump. Fifteen minute samples were collected into 5 microliters of 0.5M perchloric acid. The probe was calibrated by measuring the recovery of standards of known concentration, 100 nM. Dialysates were immediately assayed by direct injection onto a highly sensitive reverse-phase, isocratic HPLC with an ESA 5100 coulochem detector. Chromatograms were completed within 11 minutes. After an initial period of "injury release", 60 to 90 minutes post probe implantation, stable concentrations of dopamine were measured for a minimum of three […] collections.
The first rat had probes inserted into the right striatum on the third and sixty-fifth days and in the left striatum on the sixty-fifth day post polymer implantation. The second rat had probes inserted into both the right and left striata on the twentieth day.

[3] = both in vitro and in vivo; cited from earlier work

N[C@@H](Cc1ccc(O)c(O)c1)C(=O)O [L-dopa]
clinical response (Parkinsonian patients): prolonged and stable clinical response
behavioral symptoms of Parkinson's disease (Parkinson's disease): can be reduced

Nerve Growth Factor
behavioral deficits (behavioral deficits): reduces behavioral deficits

NCCc1ccc(O)c(O)c1 [dopamine]
substance released that was dopamine (not oxidation products or other metabolites), HPLC ([1]; High Pressure Liquid Chromatography of release solutions): greater than 99.9%
release of dopamine ([1]; coated fully except for one hole, 30% loading, up to 65 days in vitro): linear release
initial release of dopamine (every thirty minutes over several hours) ([1]; coated fully except for one hole, 40% dopamine): release is constant
release of dopamine ([1]; disc coated on one side, 30%, 40% or 50% dopamine): the release is not linear
release of dopamine ([1]; disc containing 30%, 40% or 50% dopamine, fully coated, throughout the time period): no release of dopamine
release of dopamine ([1]; disc not coated, 30%, 40% or 50% dopamine): release occurred rapidly, in a non-linear manner
release of dopamine ([1]; fully coated except for two holes, 30% loading): Virtual linear release
persistence of dopamine release into the extracellular fluid of the implanted striatum ([2]; not evident on third day, seen by twentieth day): persists for at least two months
increase in dopamine levels ([2]; rat, in vivo): > 200 fold
dopamine concentration in the extracellular fluid (ECF) ([2]; rat, in vivo, 28800 min): 30.5 nM
dopamine level in the extracellular fluid (ECF) ([2]; rat, in vivo, 93600 min): 36 nM
level of dopamine in the right striatum relative to normal ([2]; third day): unchanged from normal
release from EVA over an extended period of time [3]: linear, concentration and time-dependent release
